Experimental data: the Kinase Knowledgebase extract (Sharma et al. 2016)

Tests used:
PIK3CB (Human) = PIK3CB (Human) (UniProt P42338)
PIK3CG (human) = PIK3CG (human) (UniProt P48736)
PIK3CA (human) = PIK3CA (human) (UniProt P42336)
PIK3CD (Human) = PIK3CD (Human) (UniProt O00329)
EGFR (human) = EGFR (human) (UniProt P00533)
MAPK14 (human) = MAPK14 (human) (UniProt Q16539); conditions: concentration not given here
CDK2 (human) = CDK2 (human) (UniProt P24941); conditions: for inhibition: concentration not given here

Chain of PIK3CG (human) (P48736 whole entry, looked up): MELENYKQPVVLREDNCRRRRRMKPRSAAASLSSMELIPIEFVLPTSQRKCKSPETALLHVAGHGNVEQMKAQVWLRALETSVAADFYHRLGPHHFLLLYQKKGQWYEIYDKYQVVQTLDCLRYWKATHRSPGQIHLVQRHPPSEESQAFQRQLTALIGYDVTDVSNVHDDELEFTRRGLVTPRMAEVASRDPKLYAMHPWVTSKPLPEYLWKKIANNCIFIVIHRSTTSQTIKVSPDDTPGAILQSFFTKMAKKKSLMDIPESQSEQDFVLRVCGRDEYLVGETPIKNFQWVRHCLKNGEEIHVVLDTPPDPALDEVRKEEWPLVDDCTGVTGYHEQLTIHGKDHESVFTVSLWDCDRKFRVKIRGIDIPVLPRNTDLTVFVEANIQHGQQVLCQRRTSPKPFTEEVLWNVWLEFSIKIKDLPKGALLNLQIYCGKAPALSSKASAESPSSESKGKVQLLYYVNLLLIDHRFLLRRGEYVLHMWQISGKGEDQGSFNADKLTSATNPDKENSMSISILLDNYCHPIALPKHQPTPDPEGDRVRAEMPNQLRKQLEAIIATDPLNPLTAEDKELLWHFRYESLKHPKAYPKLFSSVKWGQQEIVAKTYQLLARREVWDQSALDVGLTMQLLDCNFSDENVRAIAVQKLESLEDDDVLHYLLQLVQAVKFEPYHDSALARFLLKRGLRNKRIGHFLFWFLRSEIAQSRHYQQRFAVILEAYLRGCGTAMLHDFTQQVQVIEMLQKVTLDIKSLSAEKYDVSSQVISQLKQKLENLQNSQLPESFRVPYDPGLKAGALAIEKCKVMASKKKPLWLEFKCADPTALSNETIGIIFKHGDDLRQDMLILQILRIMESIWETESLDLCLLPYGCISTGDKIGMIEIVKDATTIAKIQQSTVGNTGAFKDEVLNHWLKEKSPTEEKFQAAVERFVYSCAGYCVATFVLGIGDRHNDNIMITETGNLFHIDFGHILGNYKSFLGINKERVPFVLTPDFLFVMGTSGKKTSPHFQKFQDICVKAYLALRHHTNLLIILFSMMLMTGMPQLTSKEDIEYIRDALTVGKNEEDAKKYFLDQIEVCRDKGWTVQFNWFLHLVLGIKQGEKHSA
Chain of PIK3CB (Human) (P42338 whole entry, looked up): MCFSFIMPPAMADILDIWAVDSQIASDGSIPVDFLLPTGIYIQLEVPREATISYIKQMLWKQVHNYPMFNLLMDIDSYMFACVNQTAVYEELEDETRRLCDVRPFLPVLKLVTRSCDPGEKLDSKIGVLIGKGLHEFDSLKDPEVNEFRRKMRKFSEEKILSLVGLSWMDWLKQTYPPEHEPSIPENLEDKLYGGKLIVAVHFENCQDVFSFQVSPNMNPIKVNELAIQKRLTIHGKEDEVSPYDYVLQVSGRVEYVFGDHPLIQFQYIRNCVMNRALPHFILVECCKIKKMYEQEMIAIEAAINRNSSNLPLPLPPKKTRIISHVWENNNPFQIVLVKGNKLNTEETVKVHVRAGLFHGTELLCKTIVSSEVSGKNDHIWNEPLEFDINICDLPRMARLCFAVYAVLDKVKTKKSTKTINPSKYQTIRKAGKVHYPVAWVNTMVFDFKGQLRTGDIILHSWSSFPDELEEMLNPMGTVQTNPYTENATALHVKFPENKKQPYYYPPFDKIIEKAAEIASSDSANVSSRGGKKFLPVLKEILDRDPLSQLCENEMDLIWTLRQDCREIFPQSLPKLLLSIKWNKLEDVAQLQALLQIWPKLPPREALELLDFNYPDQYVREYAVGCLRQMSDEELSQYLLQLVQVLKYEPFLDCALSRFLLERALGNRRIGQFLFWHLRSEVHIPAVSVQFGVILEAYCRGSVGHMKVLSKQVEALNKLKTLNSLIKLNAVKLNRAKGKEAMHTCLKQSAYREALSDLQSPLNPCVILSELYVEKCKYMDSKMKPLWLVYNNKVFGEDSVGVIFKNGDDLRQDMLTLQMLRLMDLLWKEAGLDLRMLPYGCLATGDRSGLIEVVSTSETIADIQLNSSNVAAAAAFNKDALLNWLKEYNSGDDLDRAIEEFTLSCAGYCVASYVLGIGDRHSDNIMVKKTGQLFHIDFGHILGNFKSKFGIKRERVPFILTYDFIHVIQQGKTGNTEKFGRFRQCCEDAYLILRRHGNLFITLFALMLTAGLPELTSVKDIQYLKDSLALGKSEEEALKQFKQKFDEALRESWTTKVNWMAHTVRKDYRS
Chain of PIK3CD (Human) (O00329 whole entry, looked up): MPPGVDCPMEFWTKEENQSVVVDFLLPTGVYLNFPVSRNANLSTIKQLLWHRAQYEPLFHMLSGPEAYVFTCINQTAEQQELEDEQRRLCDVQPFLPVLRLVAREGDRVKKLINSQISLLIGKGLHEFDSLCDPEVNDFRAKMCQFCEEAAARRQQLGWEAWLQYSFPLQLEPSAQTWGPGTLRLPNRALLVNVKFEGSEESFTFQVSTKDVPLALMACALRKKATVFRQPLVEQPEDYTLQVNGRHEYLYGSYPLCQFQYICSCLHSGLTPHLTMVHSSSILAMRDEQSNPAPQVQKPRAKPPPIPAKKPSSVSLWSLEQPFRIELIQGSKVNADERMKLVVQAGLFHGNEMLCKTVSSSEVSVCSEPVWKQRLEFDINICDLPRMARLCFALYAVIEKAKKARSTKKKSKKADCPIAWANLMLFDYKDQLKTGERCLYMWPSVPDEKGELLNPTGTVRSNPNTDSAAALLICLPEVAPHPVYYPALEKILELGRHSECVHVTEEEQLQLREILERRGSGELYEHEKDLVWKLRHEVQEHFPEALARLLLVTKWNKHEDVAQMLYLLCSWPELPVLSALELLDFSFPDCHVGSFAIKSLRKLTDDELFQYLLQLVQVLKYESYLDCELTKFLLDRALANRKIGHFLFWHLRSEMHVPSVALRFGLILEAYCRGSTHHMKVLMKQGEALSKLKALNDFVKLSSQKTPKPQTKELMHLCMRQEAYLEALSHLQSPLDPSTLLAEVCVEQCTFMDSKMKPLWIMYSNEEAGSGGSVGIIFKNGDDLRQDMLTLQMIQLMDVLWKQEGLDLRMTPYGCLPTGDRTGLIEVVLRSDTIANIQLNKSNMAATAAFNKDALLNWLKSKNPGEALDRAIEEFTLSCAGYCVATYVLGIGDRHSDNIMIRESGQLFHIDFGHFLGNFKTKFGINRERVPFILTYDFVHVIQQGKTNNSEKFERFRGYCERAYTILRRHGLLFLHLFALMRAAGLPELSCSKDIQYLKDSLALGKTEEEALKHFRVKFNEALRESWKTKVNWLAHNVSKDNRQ
Chain of MAPK14 (human) (Q16539 whole entry, looked up): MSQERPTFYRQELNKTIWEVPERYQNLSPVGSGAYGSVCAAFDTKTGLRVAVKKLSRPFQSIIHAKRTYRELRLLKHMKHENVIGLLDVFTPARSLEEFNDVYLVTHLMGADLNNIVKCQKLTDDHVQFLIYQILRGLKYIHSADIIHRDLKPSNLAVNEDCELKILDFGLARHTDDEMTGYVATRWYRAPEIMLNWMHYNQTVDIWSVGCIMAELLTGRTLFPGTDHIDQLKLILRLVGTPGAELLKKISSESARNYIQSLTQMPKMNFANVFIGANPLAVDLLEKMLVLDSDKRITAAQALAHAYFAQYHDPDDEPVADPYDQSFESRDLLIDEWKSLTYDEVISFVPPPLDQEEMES
Chain of EGFR (human) (P00533 whole entry, looked up): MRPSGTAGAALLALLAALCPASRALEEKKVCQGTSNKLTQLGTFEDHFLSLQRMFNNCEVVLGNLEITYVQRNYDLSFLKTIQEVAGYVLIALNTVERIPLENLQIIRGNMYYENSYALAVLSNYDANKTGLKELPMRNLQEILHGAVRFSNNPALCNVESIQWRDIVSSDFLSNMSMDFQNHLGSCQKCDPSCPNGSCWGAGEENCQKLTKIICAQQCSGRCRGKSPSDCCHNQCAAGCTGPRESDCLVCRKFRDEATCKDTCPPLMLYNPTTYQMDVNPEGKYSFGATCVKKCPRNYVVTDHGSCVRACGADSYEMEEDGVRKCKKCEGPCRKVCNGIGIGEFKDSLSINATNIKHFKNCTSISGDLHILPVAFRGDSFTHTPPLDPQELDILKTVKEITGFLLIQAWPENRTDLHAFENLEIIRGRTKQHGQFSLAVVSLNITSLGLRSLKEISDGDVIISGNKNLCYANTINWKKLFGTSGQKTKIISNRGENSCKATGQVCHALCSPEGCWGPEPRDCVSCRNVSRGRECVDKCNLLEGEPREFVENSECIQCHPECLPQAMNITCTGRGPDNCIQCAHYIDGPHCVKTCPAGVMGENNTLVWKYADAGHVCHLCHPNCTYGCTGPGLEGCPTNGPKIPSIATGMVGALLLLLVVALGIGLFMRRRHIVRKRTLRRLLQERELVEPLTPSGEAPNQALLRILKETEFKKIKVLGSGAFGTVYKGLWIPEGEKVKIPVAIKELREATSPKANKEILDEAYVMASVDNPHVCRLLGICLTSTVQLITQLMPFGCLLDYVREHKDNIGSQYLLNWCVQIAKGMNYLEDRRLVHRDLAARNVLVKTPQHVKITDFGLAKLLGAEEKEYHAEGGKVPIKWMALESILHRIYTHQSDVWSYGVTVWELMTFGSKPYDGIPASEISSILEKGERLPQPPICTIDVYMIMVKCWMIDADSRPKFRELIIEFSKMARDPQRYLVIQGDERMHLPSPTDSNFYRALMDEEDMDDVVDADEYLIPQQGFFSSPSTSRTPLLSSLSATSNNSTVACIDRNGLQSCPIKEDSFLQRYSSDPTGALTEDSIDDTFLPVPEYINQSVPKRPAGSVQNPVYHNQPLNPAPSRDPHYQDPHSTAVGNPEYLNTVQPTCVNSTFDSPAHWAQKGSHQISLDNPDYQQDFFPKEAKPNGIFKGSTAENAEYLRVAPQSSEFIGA

| IC50 (PIK3CB (Human)) [nM] | IC50 (PIK3CG (human)) [nM] | IC50 (PIK3CA (human)) [nM] | IC50 (PIK3CD (Human)) [nM] | IC50 (EGFR (human)) [nM] | inhibition (MAPK14 (human)) [%] | inhibition (CDK2 (human)) [%] | IC50 (CDK2 (human)) [nM] | Structure (SMILES) |
| --- | --- | --- | --- | --- | --- | --- | --- | --- |
| 1000 to 50000 | 1000 to 50000 | 1000 to 50000 | 1000 to 50000 | > 50000 |  |  |  | CC(C)n1cc(-c2cc3cc(C=O)ccc3s2)c2c(N)ncnc21 |
| 1000 to 50000 | 1000 to 50000 | 1000 to 50000 | < 1000 | 1000 to 50000 |  |  |  | CC(C)n1nc(-c2ccc(I)cc2)c2c(N)ncnc21 |
|  |  |  |  |  | -8.5 | -5.6 |  | COc1ccccc1-n1c(CSc2ncnc3[nH]cnc23)nc2cccc(Cl)c2c1=O |
| 1000 to 50000 | < 1000 | < 1000 | < 1000 | 1000 to 50000 |  |  |  | CC(C)n1nc(-c2ccc3onc(N)c3c2)c2c(N)ncnc21 |
| 1000 to 50000 | < 1000 | 1000 to 50000 | < 1000 | < 1000 |  |  |  | CC(C)n1nc(-c2cccc(C(=O)NC3C=NCS3)c2)c2c(N)ncnc21 (stereo unspecified) |

The next lines start with the compound.

| Structure (SMILES) | IC50 (PIK3CB (Human)) [nM] | IC50 (PIK3CG (human)) [nM] | IC50 (PIK3CA (human)) [nM] | IC50 (PIK3CD (Human)) [nM] | IC50 (EGFR (human)) [nM] | inhibition (MAPK14 (human)) [%] | inhibition (CDK2 (human)) [%] | IC50 (CDK2 (human)) [nM] |
| --- | --- | --- | --- | --- | --- | --- | --- | --- |
| Cc1ccccc1-n1c(Cn2ncc3c(N)ncnc32)nc2cccc(C)c2c1=O | 25000 | 10000 | 100000 | 240 |  |  |  |  |
| COc1ccc2c(c1OC)N=C(NC(=O)c1cccnc1)N1CCN=C21 |  |  |  |  | > 50000 | 1.5 | -0.9 |  |
| Oc1cccc(-c2nc(N3CCOCC3)c3oc4ncccc4c3n2)c1 |  |  |  |  |  | 0.2 | 1.5 |  |
| Cc1ccccc1-n1c(Cn2cnc3c(N)ncnc32)nc2cccc(C)c2c1=O |  |  |  |  |  | -4.1 | -2.4 |  |
| O=C(c1ccccc1)c1ccc(N2CCOCC2)cc1O |  |  |  |  |  | -2.8 | 0.3 |  |
| Cc1ccccc1Oc1cccc2c(=O)cc(N3CCOCC3)[nH]c12 |  | 100000 |  |  |  | -1.2 | -5.3 |  |
| CC(=O)Nc1nc(C)c(-c2ccc(Cl)c(S(=O)(=O)NCCO)c2)s1 | 590 |  |  |  |  | -2.9 | 1.9 |  |
| Cc1cc(C(C)Nc2ccccc2)c2oc(-c3ccncc3)cc(=O)c2c1 (stereo unspecified) | 120 |  |  |  |  | -0.9 | -3.1 |  |
| O=C1NC(=S)S/C1=C/c1ccc2c(c1)N(Cc1ccc(F)c(Cl)c1)C(=O)CO2 | 1100 |  |  |  |  | -2.6 | -4.9 |  |
| Cc1ccc([N+](=O)[O-])cc1S(=O)(=O)N(C)N=Cc1cnc2ccc(Br)cn12 |  | 76 |  |  |  | -0.3 |  | 1200 |
| O=c1cc(-c2cccc3c2Sc2ccccc2S3)oc(N2CCOCC2)c1 | 1200 | 9900 | 3300 | 720 |  | -1.4 | 2.6 |  |
